According to patent US20180193361A1, “GUT ANTI-INFLAMMATORY AGENTS FOR REGULATION OF HIGH BLOOD GLUCOSE LEVELS” (UNIVERSITY HEALTH NETWORK, priority 2015, published 2018):

What was measured:
PPARγ = molecular target: T1, PPARγ (Mus musculus, UniProt P37238); assay: PPARγ activity assay in small bowel T cell nuclear extracts; type: in vivo; conditions: purified small bowel T cells, mice fed HFD 5-ASA vs control HFD
T1 construct: from tissue; host or cells: purified small bowel T cells of HFD or HFD 5-ASA-fed mice (nuclear extracts)
Text: We measured PPARγ functional activity in T cell nuclear extracts using a PPARγ transcription factor binding assay following vendor's instructions (ThermoScientific and Cayman Chemical Company). This ELISA-based assay is precoated with dsDNA containing the peroxisome proliferator response element (PPRE). PPARγ in the isolated nuclear extracts bind to PPRE. As per vendor's recommendations, this assay is specific to PPARγ and not to other PPARs (i.e., α or δ).

HFD-fed C57BL/6 mice = assay: Metabolic studies, mice fed HFD or HFD 5-ASA from 6 weeks of age (preventative); type: in vivo
Method: (§1) Mice. Mice were fed either NCD (15 kcal % fat) or HFD (Research Diets, 60 kcal % fat, irradiated) starting at 6 weeks of age. All studies were performed under the approval of Animal User Protocols by the Animal Care Committee at the University Health Network. Mice were maintained in a pathogen-free, temperature-controlled environment on a 12-hour light and dark cycle. All mice used in comparative studies were male, age-matched, and litter mates where possible. […] We confirmed T cell-specific floxing of the PPARγ gene in Lck-Cre+ PPARγfl/fl mice by qPCR with a minimum of at least 90% reduction in PPARγ expression. […] We measured body weights, GTTs, ITTs, serum insulin, and fat cell diameter as previously described (Winer et al., 2009a). All GTTs were performed with a 1.5 g/kg glucose i.p. injection unless indicated otherwise. We fixed VAT, colons and small bowel ileums, from mice for 48 h in 10% buffered formalin before processing and hematoxylin/eosin staining. We enumerated crown-like structures (CLSs) in VAT by counting the number of adipocytes completely surrounded by immune cells identified on hematoxylin/eosin staining per 100× low power field. Analysis of histochemical stains was performed in a blinded fashion by two certified pathologists (S.W. and D.W.).

[1] = test system: C57BL/6 mice on HFD with established metabolic disease; assay: Treatment of established obesity-associated IR (switch to HFD 5-ASA after 8 weeks HFD); type: in vivo; conditions: 8 weeks HFD then 8 weeks HFD 5-ASA (1500 mg/kg/day) vs HFD only
Method: as §1, with “otherwise.” for “otherwise. We fixed VAT, colons and small bowel ileums, from mice for 48 h in 10% buffered formalin before processing and hematoxylin/eosin staining. We enumerated crown-like structures (CLSs) in VAT by counting the number of adipocytes completely surrounded by immune cells identified on hematoxylin/eosin staining per 100× low power field. Analysis of histochemical stains was performed in a blinded fashion by two certified pathologists (S.W. and D.W.).”

[2] = test system: gluconeogenesis enzyme and adipogenesis-related genes; assay: q-PCR of gluconeogenesis and adipogenesis genes, HFD or HFD 5-ASA mice; type: in vivo
Text: We extracted total RNA from isolated or cultured cells using a RNeasy Mini Kit (Qiagen), and for subcutaneous adipose tissue (SAT) and VAT we used a RNeasy Lipid Extraction kit (Qiagen). We reverse-transcribed the RNA by random primers with M-MLV (Invitrogen). We performed q-PCR with a 7900HT PCR system (Applied Biosystems) using SYBR® Green master mix reagent (Applied Biosystems). We assessed expression of adipocyte P2 (aP2), CCAAT/enhancer-binding protein-α (CEBPα), Peroxisome proliferator-activated receptor-γ (PPARγ), and sterol regulatory element-binding protein (SREBP) cDNA. […] We calculated relative fold changes in gene expression normalized to 18s or GAPDH by the ΔΔCT method using the equation 2-ΔΔCT. The results are shown as fold changes compared to the control group.

[3] = test system: Lck-Cre PPARγfl/fl T cells; assay: In vitro IFNγ secretion, T cells lacking PPARγ (Lck-Cre PPARγfl/fl); type: cell-based, mice; conditions: HFD-fed Lck-Cre+ PPARγfl/fl vs WT, 5-ASA in vitro 0.01-1 mM
Method: Mice. Mice were fed either NCD (15 kcal % fat) or HFD (Research Diets, 60 kcal % fat, irradiated) starting at 6 weeks of age. All studies were performed under the approval of Animal User Protocols by the Animal Care Committee at the University Health Network. Mice were maintained in a pathogen-free, temperature-controlled environment on a 12-hour light and dark cycle. All mice used in comparative studies were male, age-matched, and litter mates where possible. […] We confirmed T cell-specific floxing of the PPARγ gene in Lck-Cre+ PPARγfl/fl mice by qPCR with a minimum of at least 90% reduction in PPARγ expression. […] To measure the effect of IFNγ on tight-junction gene expression, we treated MODE-K cells with recombinant mouse IFNγ (Biolegend). We purified bulk dendritic cells and T cells from murine small bowels and spleens using a negative selection DC or T cell isolation kit (Stem Cell Technologies). We plated T cells at 5×10^5 cells/well with plate-bound anti-CD3/CD28 (1 μg/ml, Biolegend). […] We collected supernatants for cytokine measurements after 72 hour incubation. […] We measured serum cytokines by Luminex Multiplex cytokine assay (Millipore, run by the UHN Microarray Center), and quantified IL-10 and IFN-γ in supernatants of anti-CD3/CD28-stimulated splenocytes or bowel immune cells (Winer et al., 2009b) by ELISA (Biolegend).

NCD-fed C57BL/6 mice = assay: Metabolic studies, NCD or NCD 5-ASA; type: in vivo; conditions: NCD vs NCD 5-ASA 1500 mg/kg/day, 12 weeks
Method: Mice. Mice were fed either NCD (15 kcal % fat) or HFD (Research Diets, 60 kcal % fat, irradiated) starting at 6 weeks of age. […] Mice were maintained in a pathogen-free, temperature-controlled environment on a 12-hour light and dark cycle. All mice used in comparative studies were male, age-matched, and litter mates where possible. […] We measured body weights, GTTs, ITTs, serum insulin, and fat cell diameter as previously described (Winer et al., 2009a). All GTTs were performed with a 1.5 g/kg glucose i.p. injection unless indicated otherwise.

[4] = HFD vs HFD 5-ASA 1500 mg/kg/day in diet, after 12-14 weeks
[5] = HFD vs HFD 5-ASA 1500 mg/kg/day, 14 weeks

T1 sequence (P37238 whole entry): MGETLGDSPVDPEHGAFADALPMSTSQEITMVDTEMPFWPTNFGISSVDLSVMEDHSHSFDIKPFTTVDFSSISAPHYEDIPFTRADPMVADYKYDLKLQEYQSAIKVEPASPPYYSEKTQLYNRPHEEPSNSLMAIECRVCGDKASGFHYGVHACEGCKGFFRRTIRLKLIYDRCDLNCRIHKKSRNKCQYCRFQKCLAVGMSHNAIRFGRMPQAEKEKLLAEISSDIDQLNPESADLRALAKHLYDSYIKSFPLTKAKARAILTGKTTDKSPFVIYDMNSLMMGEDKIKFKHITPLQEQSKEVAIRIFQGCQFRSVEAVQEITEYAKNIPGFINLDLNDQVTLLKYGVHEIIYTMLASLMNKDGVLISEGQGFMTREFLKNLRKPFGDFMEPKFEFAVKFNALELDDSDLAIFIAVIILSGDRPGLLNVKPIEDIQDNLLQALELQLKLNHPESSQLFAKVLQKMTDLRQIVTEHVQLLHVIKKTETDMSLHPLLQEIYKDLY

## Nc1ccc(O)c(C(=O)O)c1 [5-ASA, 5-aminosalicylic acid]
PPARγ
  PPARγ functional activity: increased
HFD-fed C57BL/6 mice; 5-ASA dose range 150 mg/kg/day up to 1500 mg/kg/day in mice
  glucose tolerance: beneficial effects
HFD-fed C57BL/6 mice; HFD vs HFD 5-ASA 1500 mg/kg/day in diet
  liver steatosis: reduced
HFD-fed C57BL/6 mice; [4]
  VAT weight: no significant difference
  adipocyte size: no significant difference
  body weight: no significant difference
  number of crown-like structures in VAT: no significant difference
  organ weights: no significant difference
HFD-fed C57BL/6 mice; [5]
  fasting glucose: significant improvements
  fasting insulin: significant improvements
  glucose tolerance (GTT): significant improvements
  insulin tolerance (ITT): significant improvements
HFD-fed C57BL/6 mice; lower dose 150 mg/kg/day in HFD, 24 weeks
  effects on metabolic disease (GTT, ITT): beneficial effects
[1]
  body weight: did not change
  glucose tolerance: significant improvements
  insulin tolerance: significant improvements
[2]; HFD vs HFD 5-ASA 1500 mg/kg/day
  gluconeogenesis enzyme gene expression: could not detect significant changes
[2]; VAT or SAT, HFD 5-ASA relative to HFD, 18 weeks of diet
  expression of adipogenesis-related genes: no effects
[3]
  suppressive effects on IFNγ with loss of PPARγ in T cells: abrogated
NCD-fed C57BL/6 mice
  IR: little or no difference
  body weight: little or no difference
  fasting glucose: little or no difference
  glucose tolerance: little or no difference
